Test [1] addresses T1, DNAPK (Homo sapiens (Human), UniProt P78527). It is filed as biochemical. The note with it: mean of at least 2 experiments; 18 μM ATP; read-out: DNA-PK enz pIC50 (converted). The source says: The following assays were used to measure the effects of the compounds described herein: a) DNAPK enzyme potency assay; b) DNAPK cellular potency assay. During the description of the assays, generally: • i. The following abbreviations have been used; DMSO=Dimethyl Sulphoxide; DTT=Dithiothreitol; EDTA=Ethylenediaminetetraacetic Acid, TR-FRET=Time Resolved Fluorescence Resonance Energy Transfer, ATP=Adenosine triphosphate, DTT=Dithiothreitol, DNA=Deoxyribonucleic acid, HEPES=(2-hydroxyethyl)-1-piperazineethanesulfonic acid • ii.

The target of test [2] is JAK3 (Homo sapiens (Human), UniProt P52333). Kind of test: JAK3 enzyme assay (Z'-LYTE). The note with it: 10 μM ATP; mean of at least 2 experiments; read-out: JAK3 enz pIC50 (converted). It is filed as biochemical. The text has this:
The 2× AURKB (Aurora B)/Ser/[…]

Test [3] deals with JAK1 (Homo sapiens (Human), UniProt P23458). Kind of test: JAK1 enzyme assay (Z'-LYTE). Format: biochemical. The conditions noted are these: 75 μM ATP; mean of at least 2 experiments; read-out: JAK1 enz pIC50 (converted).
Chain of JAK1 (P23458 whole entry): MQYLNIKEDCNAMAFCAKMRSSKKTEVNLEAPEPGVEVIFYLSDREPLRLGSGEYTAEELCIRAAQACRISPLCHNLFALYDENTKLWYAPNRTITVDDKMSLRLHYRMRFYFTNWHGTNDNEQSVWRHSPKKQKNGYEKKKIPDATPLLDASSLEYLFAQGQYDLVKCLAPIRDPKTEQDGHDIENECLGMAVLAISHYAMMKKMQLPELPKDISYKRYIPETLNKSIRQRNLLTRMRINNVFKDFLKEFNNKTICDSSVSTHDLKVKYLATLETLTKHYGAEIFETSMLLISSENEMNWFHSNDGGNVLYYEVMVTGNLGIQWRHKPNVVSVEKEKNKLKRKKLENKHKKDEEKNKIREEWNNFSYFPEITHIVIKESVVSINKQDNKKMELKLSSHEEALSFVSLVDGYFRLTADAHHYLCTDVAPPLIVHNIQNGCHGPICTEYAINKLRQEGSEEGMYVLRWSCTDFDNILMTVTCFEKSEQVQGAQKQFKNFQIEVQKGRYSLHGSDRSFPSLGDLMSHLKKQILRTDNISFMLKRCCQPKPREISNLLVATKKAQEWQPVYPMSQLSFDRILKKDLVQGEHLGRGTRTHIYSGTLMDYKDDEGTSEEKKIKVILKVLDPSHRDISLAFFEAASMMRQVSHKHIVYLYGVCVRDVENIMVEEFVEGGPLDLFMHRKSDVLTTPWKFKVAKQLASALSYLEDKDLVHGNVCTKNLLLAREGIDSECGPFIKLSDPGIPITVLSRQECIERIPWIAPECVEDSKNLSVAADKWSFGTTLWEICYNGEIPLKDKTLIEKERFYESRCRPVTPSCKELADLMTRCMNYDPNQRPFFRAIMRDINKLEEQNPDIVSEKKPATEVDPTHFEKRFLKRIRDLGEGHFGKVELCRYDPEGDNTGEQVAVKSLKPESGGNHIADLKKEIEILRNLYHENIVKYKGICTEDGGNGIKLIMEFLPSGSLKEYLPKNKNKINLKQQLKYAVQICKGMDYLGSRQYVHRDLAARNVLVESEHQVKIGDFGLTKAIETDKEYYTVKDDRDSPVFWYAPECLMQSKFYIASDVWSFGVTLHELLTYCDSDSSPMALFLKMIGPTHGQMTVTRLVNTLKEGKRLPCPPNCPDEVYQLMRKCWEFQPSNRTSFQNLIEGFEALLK
Protocol: (§1) d) Aurora-A, Aurora-B, JAK1, JAK2, JAK3 Enzyme Assays
(§2) The inhibitory activity of compounds against AURKA, AURKB, JAK1, JAK2 and JAK3 was determined in Z′-LYTE® assays run by ThermoFisher Scientific as part of their SelectScreen® Biochemical Kinase Profiling Service. The Z′-LYTE® biochemical assay format employs a fluorescence-based, coupled-enzyme format and is based on the differential sensitivity of phosphorylated and non-phosphorylated peptides to proteolytic cleavage. The peptide substrate is labeled with two fluorophores—one at each end—that make up a FRET pair. In the primary reaction, the kinase transfers the gamma-phosphate of ATP to a single tyrosine, serine or threonine residue in a synthetic FRET-peptide. In the secondary reaction, a site-specific protease recognises and cleaves non-phosphorylated FRET-peptides. Phosphorylation of FRET-peptides suppresses cleavage by the Development Reagent. Cleavage disrupts FRET between the donor (i.e., coumarin) and acceptor (i.e., fluorescein) fluorophores on the FRET-peptide, whereas uncleaved, phosphorylated FRET-peptides maintain FRET. A ratiometric method, which calculates the ratio (the Emission Ratio) of donor emission to acceptor emission after excitation of the donor fluorophore at 400 nm, is used to quantitate reaction progress. Both cleaved and uncleaved FRET-peptides contribute to the fluorescence signals and therefore to the Emission Ratio. The extent of phosphorylation of the FRET-peptide can be calculated from the Emission Ratio.
(§3) 2.4 μL Kinase Buffer (50 mM HEPES pH 7.5, 0.01% BRIJ-35, 10 mM MgCl2, 1 mM EGTA), 5 μL 2× Peptide/Kinase mixture (detailed below for each kinase) and 2.5 μL 4× ATP Solution (prepared in Kinase Buffer) were added separately to the compound plates, placed on a plate shaker for 30 sec, and then incubated for 60 mins at room temperature. […] Assay plates were placed on a plate shaker for 30 sec, incubated for 60 mins at room temperature, and then read using a fluorescence plate reader.
The target in test [4] is T1, DNAPK. Kind of test: DNAPK cellular potency assay (DNA-PK cell), pS2056-DNAPK ELISA in irradiated A549 cells. Format: cell-based. The conditions noted are these: A549 cell line, 8 Gy radiation, mean of at least 2 experiments, read-out: DNA-PK cell pIC50 (converted). In general terms: In an ELISA, binding on a coated surface is turned into a signal by an enzyme label.
For test [5], the target named is JAK2 (Homo sapiens (Human), UniProt O60674). Kind of test: JAK2 enzyme assay (Z'-LYTE). Format: biochemical. The conditions noted are these: 25 μM ATP; mean of at least 2 experiments; read-out: JAK2 enz pIC50 (converted).
Chain of JAK2 (O60674 whole entry): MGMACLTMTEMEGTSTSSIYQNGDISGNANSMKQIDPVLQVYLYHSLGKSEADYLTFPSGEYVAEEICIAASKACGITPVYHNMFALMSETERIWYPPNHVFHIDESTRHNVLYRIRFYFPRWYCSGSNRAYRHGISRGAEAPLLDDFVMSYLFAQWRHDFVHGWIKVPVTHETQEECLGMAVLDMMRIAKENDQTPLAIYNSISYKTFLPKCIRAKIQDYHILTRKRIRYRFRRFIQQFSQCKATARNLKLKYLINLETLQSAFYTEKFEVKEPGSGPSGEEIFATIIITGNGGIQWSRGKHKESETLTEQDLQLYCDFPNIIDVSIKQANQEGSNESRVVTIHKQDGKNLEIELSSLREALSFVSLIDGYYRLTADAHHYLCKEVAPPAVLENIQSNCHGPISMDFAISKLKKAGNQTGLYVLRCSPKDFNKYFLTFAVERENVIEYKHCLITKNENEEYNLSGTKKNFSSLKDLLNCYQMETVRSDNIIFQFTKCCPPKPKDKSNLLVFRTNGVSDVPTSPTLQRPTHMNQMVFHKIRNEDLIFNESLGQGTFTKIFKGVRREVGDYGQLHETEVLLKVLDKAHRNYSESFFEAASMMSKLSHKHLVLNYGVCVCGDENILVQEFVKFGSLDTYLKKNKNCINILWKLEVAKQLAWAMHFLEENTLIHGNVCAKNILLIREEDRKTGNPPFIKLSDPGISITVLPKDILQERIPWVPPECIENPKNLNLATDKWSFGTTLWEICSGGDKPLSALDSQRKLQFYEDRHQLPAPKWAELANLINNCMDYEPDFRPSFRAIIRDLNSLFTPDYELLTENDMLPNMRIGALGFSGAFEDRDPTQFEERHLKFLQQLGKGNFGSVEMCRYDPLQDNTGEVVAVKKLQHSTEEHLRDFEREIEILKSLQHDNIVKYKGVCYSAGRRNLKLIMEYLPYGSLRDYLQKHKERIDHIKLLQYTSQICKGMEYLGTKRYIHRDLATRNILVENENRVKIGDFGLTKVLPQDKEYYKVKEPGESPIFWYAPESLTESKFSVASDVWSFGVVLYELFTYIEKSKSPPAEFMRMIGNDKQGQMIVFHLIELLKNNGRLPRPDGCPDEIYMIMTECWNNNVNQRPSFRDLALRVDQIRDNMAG
Protocol: as §1, §2, §3
The target in test [6] is AURKA (Aurora A) (Homo sapiens (Human), UniProt O14965). Kind of test: Aurora-A enzyme assay (Z'-LYTE). The note with it: 10 μM ATP; mean of at least 2 experiments; read-out: AurA enz pIC50 (converted). Format: biochemical.
Chain of AURKA (Aurora A) (O14965 whole entry): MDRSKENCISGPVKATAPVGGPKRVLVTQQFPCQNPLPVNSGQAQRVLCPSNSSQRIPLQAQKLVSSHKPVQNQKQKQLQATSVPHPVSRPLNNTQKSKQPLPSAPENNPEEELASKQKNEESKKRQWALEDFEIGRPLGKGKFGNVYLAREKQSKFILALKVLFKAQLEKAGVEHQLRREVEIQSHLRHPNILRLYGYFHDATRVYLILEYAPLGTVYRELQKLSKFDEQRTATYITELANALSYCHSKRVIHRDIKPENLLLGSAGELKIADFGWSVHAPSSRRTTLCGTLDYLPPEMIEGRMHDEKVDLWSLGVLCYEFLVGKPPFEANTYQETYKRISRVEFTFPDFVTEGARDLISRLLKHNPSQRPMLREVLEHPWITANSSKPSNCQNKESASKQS
Protocol: as §1, §2, §3
Test [7] concerns the target TTK (Homo sapiens (Human), UniProt P33981). Kind of test: TTK enzyme assay (LanthaScreen Eu Kinase Binding assay). The note with it: mean of at least 2 experiments. The text has this: The LanthaScreen® Eu Kinase Binding assay format uses binding of an Alexa Fluor® conjugate or “tracer” to a kinase, which is detected by addition of a Eu-labeled anti-tag antibody. […] The degree of FRET measured in the assay is used to determine the binding of a compound.
Plates were then read using a fluorescence plate reader.

The target of test [8] is AURKB (Aurora B) (Homo sapiens (Human), UniProt Q96GD4). Kind of test: Aurora-B enzyme assay (Z'-LYTE). Format: biochemical. The note with it: 75 μM ATP; mean of at least 2 experiments; read-out: AurB enz pIC50 (converted).
Chain of AURKB (Aurora B) (Q96GD4 whole entry): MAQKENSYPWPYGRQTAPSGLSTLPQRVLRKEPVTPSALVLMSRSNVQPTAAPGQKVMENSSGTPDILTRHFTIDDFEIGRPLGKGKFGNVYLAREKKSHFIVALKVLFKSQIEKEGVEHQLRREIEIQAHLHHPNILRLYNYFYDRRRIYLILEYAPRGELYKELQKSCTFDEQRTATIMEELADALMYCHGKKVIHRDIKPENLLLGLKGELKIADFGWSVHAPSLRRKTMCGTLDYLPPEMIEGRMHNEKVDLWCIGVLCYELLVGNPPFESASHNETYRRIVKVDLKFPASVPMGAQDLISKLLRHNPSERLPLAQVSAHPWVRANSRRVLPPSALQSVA
Protocol: as §1, §2, §3

From patent publication US10407446B2, “Amino-triazolopyridine compounds and their use in treating cancer” (AstraZeneca AB, priority 2016, dated 2019) come the findings set out here.

Read-outs that look alike come from different tables or passages of the source.

Chain of TTK (P33981 whole entry): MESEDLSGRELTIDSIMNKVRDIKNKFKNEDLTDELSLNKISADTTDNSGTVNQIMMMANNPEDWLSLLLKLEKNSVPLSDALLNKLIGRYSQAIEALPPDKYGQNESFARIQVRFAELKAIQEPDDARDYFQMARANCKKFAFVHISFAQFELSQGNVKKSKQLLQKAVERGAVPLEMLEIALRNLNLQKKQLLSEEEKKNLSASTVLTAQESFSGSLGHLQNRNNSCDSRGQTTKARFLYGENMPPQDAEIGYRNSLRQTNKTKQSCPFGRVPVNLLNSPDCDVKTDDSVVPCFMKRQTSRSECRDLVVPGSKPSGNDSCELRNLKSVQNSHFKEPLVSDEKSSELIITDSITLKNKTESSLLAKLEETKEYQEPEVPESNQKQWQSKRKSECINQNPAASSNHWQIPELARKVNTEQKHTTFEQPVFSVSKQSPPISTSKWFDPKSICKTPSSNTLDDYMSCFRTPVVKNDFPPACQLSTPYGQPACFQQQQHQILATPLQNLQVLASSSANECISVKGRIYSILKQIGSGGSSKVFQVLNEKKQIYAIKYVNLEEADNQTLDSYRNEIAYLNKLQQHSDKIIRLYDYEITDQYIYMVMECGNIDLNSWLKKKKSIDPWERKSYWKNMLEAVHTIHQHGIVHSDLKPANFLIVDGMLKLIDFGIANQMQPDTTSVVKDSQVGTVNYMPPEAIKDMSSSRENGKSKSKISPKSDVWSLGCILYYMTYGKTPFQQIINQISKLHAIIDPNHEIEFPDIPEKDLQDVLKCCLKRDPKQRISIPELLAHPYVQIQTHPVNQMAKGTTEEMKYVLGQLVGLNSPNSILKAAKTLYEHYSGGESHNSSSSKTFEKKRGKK
Chain of JAK3 (P52333 whole entry): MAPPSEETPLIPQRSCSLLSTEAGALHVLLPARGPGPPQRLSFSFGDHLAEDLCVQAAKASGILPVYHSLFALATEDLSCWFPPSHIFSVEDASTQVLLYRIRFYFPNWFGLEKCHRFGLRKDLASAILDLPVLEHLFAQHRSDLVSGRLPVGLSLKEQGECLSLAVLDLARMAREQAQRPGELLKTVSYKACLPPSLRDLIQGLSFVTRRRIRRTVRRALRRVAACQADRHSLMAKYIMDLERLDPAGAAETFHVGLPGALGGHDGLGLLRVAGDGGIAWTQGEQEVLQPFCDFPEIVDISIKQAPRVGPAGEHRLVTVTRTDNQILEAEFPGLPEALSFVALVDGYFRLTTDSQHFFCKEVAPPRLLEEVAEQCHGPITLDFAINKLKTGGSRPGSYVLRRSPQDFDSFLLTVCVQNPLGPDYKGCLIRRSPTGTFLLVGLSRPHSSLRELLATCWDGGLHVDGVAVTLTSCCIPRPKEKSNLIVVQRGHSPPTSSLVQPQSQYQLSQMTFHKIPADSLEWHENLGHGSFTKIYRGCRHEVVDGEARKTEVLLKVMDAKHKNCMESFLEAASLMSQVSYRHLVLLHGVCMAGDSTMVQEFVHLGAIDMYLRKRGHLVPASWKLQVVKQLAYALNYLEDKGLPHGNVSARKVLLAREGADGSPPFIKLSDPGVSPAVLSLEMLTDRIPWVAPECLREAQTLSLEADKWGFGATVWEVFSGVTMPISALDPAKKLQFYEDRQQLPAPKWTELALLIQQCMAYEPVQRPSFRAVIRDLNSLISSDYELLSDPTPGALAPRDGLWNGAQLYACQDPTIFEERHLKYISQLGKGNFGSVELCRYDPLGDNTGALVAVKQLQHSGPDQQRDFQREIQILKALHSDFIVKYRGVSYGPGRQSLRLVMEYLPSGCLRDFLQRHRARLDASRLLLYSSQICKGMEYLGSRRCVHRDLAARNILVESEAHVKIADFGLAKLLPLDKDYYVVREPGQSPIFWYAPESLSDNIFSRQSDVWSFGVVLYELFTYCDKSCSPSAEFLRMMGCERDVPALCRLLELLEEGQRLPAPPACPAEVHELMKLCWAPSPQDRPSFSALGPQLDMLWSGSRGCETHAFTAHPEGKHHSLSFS

As to `CO[C@H]1CC[C@H](n2c(=O)n(C)c3cnc(Nc4cn5ncnc5cc4C)nc32)CC1` [Example 6, 9-((1r,4r)-methoxycyclohexyl)-7-methyl-2-((7-methyl-[1,2,4]triazolo[1,5-a]pyridin-6-yl)amino)-7,9-dihydro-8H-purin-8-one], the IC50 in test [1] is 0.000251 µM; in test [2], above 10 µM; in test [3], above 10 µM; in test [4] it was 0.0398 µM; in test [5], above 10 µM; in test [6], above 10 µM. Moreover, the IC50 in test [8] was above 10 µM. Besides, the “TTK enz pIC50” value in test [7] was determined as 5.9.

Regarding `Cc1cc2ncnn2cc1Nc1ncc2c(n1)n(C1CCOCC1)c(=O)n2C` [Example 3, 7-methyl-2-((7-methyl-[1,2,4]triazolo[1,5-a]pyridin-6-yl)amino)-9-(tetrahydro-2H-pyran-4-yl)-7,9-dihydro-8H-purin-8-one], the IC50 in test [2], in test [3], in test [5], in test [6] and in test [8] was above 10 µM throughout.

As to `Cc1cc2ncnn2cc1Nc1ncc2c(n1)n([C@H]1CC[C@H](O)CC1)c(=O)n2C` [Example 1, 9-((1r,4r)-4-hydroxycyclohexyl)-7-methyl-2-((7-methyl-[1,2,4]triazolo[1,5-a]pyridin-6-yl)amino)-7,9-dihydro-8H-purin-8-one], the IC50 in test [2], in test [3], in test [5], in test [6] and in test [8] was above 10 µM in each case. Further, the “TTK enz pIC50” value in test [7] is on record as 5.5.

In the case of `Cc1cc2ncnn2cc1Nc1ncc2c(n1)n([C@@H]1CCCOC1)c(=O)n2C` [Example 8, (R)-7-methyl-2-((7-methyl-[1,2,4]triazolo[1,5-a]pyridin-6-yl)amino)-9-(tetrahydro-2H-pyran-3-yl)-7,9-dihydro-8H-purin-8-one], the IC50 in test [1] is 0.000398 µM; in test [2], above 10 µM; in test [3], above 10 µM; in test [4], 0.0631 µM; in test [5], above 10 µM; in test [6], above 10 µM. Also, the IC50 in test [8] was above 10 µM. For the same compound, the “TTK enz pIC50” value in test [7] is 5.2.

On to `Cc1cc2ncnn2cc1Nc1ncc2c(n1)n(C1CCCCC1)c(=O)n2C` [Example 13, 9-cyclohexyl-7-methyl-2-((7-methyl-[1,2,4]triazolo[1,5-a]pyridin-6-yl)amino)-7,9-dihydro-8H-purin-8-one], for which the IC50 is above 10 µM in test [2]; above 10 µM in test [3]; above 10 µM in test [5]; 3.98 µM in test [6]; above 10 µM in test [8]. The “TTK enz pIC50” value in test [7] turned out to be 6.3.

`Cc1cc2ncnn2cc1Nc1ncc2c(n1)n([C@H]1CC[C@@H](O)CC1)c(=O)n2C` [Example 2, 9-((1s,4s)-4-hydroxycyclohexyl)-7-methyl-2-((7-methyl-[1,2,4]triazolo[1,5-a]pyridin-6-yl)amino)-7,9-dihydro-8H-purin-8-one]: the IC50 in test [2], in test [3], in test [5], in test [6] and in test [8] was above 10 µM in each case. Moreover, the “TTK enz pIC50” value in test [7] is recorded as 6.1.

Regarding `Cc1cc2ncnn2cc1Nc1ncc2c(n1)n([C@H]1CCOC1)c(=O)n2C` [Example 11, (S)-7-methyl-2-((7-methyl-[1,2,4]triazolo[1,5-a]pyridin-6-yl)amino)-9-(tetrahydrofuran-3-yl)-7,9-dihydro-8H-purin-8-one], the IC50 in test [1] is 0.000501 µM; in test [2] it was above 10 µM; in test [3] it was above 10 µM; in test [4] it was 0.158 µM; in test [5], above 10 µM; in test [6], above 10 µM. For the same compound, the IC50 was above 7.94 µM in test [7] (read-out: TTK enz pIC50 (converted)) and above 10 µM in test [8].

For `Cc1cc2ncnn2cc1Nc1ncc2c(n1)n([C@H]1CC[C@@](C)(O)CC1)c(=O)n2C` [Example 10, 9-((1s,4s)-4-hydroxy-4-methylcyclohexyl)-7-methyl-2-((7-methyl-[1,2,4]triazolo[1,5-a]pyridin-6-yl)amino)-7,9-dihydro-8H-purin-8-one], the IC50 in test [2], in test [3], in test [5], in test [6] and in test [8] was above 10 µM each time.

Consider `Cc1cc2ncnn2cc1Nc1ncc2c(n1)n([C@]1(C)CC[C@H](O)CC1)c(=O)n2C` [Example 12, 9-((1s,4s)-4-hydroxy-1-methylcyclohexyl)-7-methyl-2-((7-methyl-[1,2,4]triazolo[1,5-a]pyridin-6-yl)amino)-7,9-dihydro-8H-purin-8-one], for which the IC50 in test [1] is 0.0002 µM; in test [2], above 10 µM; in test [3], above 10 µM; in test [4], 0.0398 µM; in test [5], above 10 µM; in test [6] it was above 10 µM. Besides, the IC50 in test [8] was above 10 µM. The “TTK enz pIC50” value in test [7] amounted to 5.8.

With `Cc1cc2ncnn2cc1Nc1ncc2c(n1)n([C@H]1CCCOC1)c(=O)n2C` [Example 7, (S)-7-methyl-2-((7-methyl-[1,2,4]triazolo[1,5-a]pyridin-6-yl)amino)-9-(tetrahydro-2H-pyran-3-yl)-7,9-dihydro-8H-purin-8-one], the IC50 in test [1] was 0.000158 µM; in test [2], above 10 µM; in test [3], above 10 µM; in test [4] it was 0.0501 µM; in test [5] it was above 10 µM; in test [6] it was above 10 µM. The IC50 in test [8] was above 10 µM. In addition, in test [7], the “TTK enz pIC50” value was found to be 5.2.

For the compound `CO[C@H]1CC[C@@H](n2c(=O)n(C)c3cnc(Nc4cn5ncnc5cc4C)nc32)CC1` [Example 5, 9-((1s,4s)-4-methoxycyclohexyl)-7-methyl-2-((7-methyl-[1,2,4]triazolo[1,5-a]pyridin-6-yl)amino)-7,9-dihydro-8H-purin-8-one], the IC50 in test [1] is 0.001 µM; in test [2], above 10 µM; in test [3] it was above 10 µM; in test [4], 0.126 µM; in test [5], above 10 µM; in test [6], above 10 µM. Also, the IC50 in test [8] is above 10 µM. Moreover, the “TTK enz pIC50” value in test [7] stood at 5.3.

`Cc1nc2cc(C)c(Nc3ncc4c(n3)n(C3CCOCC3)c(=O)n4C)cn2n1` [Example 4, 2-((2,7-dimethyl-[1,2,4]triazolo[1,5-a]pyridin-6-yl)amino)-7-methyl-9-(tetrahydro-2H-pyran-4-yl)-7,9-dihydro-8H-purin-8-one]: the IC50 in test [1] is 0.00126 µM; in test [2], above 10 µM; in test [3], above 10 µM; in test [4] it was 0.158 µM; in test [5], above 10 µM; in test [6], above 10 µM. For the same compound, the IC50 in test [8] was above 10 µM. Also, the “TTK enz pIC50” value in test [7] is listed as 5.1.

On to `Cc1cc2ncnn2cc1Nc1ncc2c(n1)n([C@H]1CC[C@](C)(O)CC1)c(=O)n2C` [Example 9, 9-((1r,4r)-4-hydroxy-4-methylcyclohexyl)-7-methyl-2-((7-methyl-[1,2,4]triazolo[1,5-a]pyridin-6-yl)amino)-7,9-dihydro-8H-purin-8-one], for which the IC50 in test [2], in test [3], in test [5], in test [6] and in test [8] was above 10 µM each time.
